Where two headings read alike, the source gives them in different places.

In this experiment the target is T1, dopamine D4 receptor (Homo sapiens, UniProt P21917).
T1 construct: expressed in transfected cells; host or cells: CHO (Chinese Hamster Ovary) cells, D4-CHO, crude membranes
T1 sequence (P21917 1-419): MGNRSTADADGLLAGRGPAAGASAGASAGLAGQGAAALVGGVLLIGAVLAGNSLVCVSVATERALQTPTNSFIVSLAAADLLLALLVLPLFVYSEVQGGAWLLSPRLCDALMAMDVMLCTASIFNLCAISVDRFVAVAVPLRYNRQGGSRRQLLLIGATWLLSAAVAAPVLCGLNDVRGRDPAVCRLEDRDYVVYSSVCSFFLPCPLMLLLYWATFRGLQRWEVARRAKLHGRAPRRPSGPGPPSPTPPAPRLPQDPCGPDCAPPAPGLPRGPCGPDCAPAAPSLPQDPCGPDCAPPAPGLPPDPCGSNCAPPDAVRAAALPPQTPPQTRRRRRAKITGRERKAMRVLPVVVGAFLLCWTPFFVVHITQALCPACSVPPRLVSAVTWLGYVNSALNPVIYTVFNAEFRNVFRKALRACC
The experiment is described as follows: Binding to the D4 receptor, [3H]-spiperone displacement, D4-CHO membranes. As for the experimental part:
The compounds were characterized by a comparison in binding behaviour to the D4 receptor and to the D2 receptor. CHO cells (Chinese Hamster Ovary) were used in the test. Crude membranes were isolated from D4 --CHO and D2 --CHO cells by ultracentrifugation and were stored at -80° C. After thawing and homogenization in a buffer solution (50 mM Tris, 1 mM EDTA, 5 mM KCI, 1.5 mM CaCI2, 4 mM MgCI2, pH 7.4) they were incubated at room temperature for 90 minutes with 200 pM [^3 H]-spiperone and increasing concentrations (1×10^-11 M to 1×10^-4 M) of the test compound. A non-specific binding by the incubation was established in the presence of 1×10^-5 M (+)-butaclamol.
The unbound radioligand was removed by filtration through a GFIC glass filter and the bound radioactivity was determined by flash emission in a Packard Top Count.
It was determined using ^3 H-spiperone. The calculation of the value was effected with a ligand.

The mark [1] stands for this setting: [3H]-spiperone 200 pM, D4-CHO crude membranes, room temperature, 90 minutes, pH 7.4, read-out: Ki at D4.

Broadly, the Ki is the dissociation constant of the complex between target and ligand, obtained from inhibition or displacement. With `O=C(OC1CCN(Cc2ccc(Cl)cc2)CC1)c1ccccc1` [H/58c, 1-(4-Chloro-benzyl)-piperidin-4-yl benzoate], the Ki under setting [1] is 7.3 nM. On the same count and under the same terms, under `O=C(OC1CCN(Cc2ccc(Cl)cc2)CC1)c1ccc(Cl)cc1` [J/82a, 1-(4-Chloro-benzyl)-piperidin-4-yl 4-chloro-benzoate] stands 18 nM. Turning to `Nc1ccccc1C(=O)OC1CCN(Cc2ccccc2)CC1` [A/5a, 1-Benzyl-piperidin-4-yl 2-amino-benzoate], the Ki stood at 4 nM. As to `Cc1ccccc1C(=O)OC1CCN(Cc2ccccc2)CC1` [E/24a, 1-Benzyl-piperidin-4-yl 2-methyl-benzoate], the Ki under setting [1] is 6 nM. Same read-out and setting: under `O=C(OC1CCN(Cc2ccccc2)CC1)c1ccc(I)cc1` [D/22a, 1-Benzyl-piperidin-4-yl 4-iodo-benzoate] stands 15 nM; under `Cc1ccc(C(=O)OC2CCN(Cc3ccc(Cl)cc3)CC2)cc1` [I/59a, 1-(4-Chloro-benzyl)-piperidin-4-yl 4-methyl-benzoate], 15 nM. Same read-out and setting: under `Cc1ccc(C(=O)OC2CCN(Cc3ccccc3)CC2)cc1` [F/25a, 1-Benzyl-piperidin-4-yl 4-methyl-benzoate] stands 8 nM. The same measure, in the same setting: the same measure for `Cc1ccc(CN2CCC(OC(=O)c3ccccc3)CC2)cc1` [k/78b, 1-(4-Methyl-benzyl)-piperidin-4-yl benzoate]: 3.8 nM; for `Cc1ccc(C(=O)OC2CCN(Cc3ccccc3)CC2)c(C)c1` [N/46a, 1-benzyl-piperidin-4-yl 2,4-dimethyl-benzoate]: 9 nM; for `Nc1ccc(C(=O)OC2CCN(Cc3ccccc3)CC2)nc1` [B/8b, 1-benzyl-piperidin-4-yl 5-amino-picolinate]: 16.4 nM. `Cc1ccc(CN2CCC(OC(=O)c3ccc(C)cc3)CC2)cc1` [L/79a, 1-(4-Methyl-benzyl)-piperidin-4-yl 4-methyl-benzoate]: the Ki under setting [1] was found to be 5.2 nM.

With `Cc1ccc(C(=O)OC2CCN(Cc3ccccc3N)CC2)cc1` [R/69a, 1-(2-Amino-benzyl)-piperidin-4-yl 4-methyl-benzoate], under setting [1], the Ki amounted to 17.5 nM. The same measure, in the same setting: the same measure for `Cc1ccc(C(=O)OC2CCN(Cc3cccc([N+](=O)[O-])c3)CC2)cc1` [P/71a, 1-(3-Nitro-benzyl)-piperidin-4-yl 4-methyl-benzoate]: 19 nM; for `O=C(OC1CCN(Cc2ccccc2)CC1)c1ccc(Br)cc1` [C/19b, 1-Benzyl-piperidin-4-yl 4-bromo-benzoate]: 10 nM; for `Cc1ccc(C(=O)OC2CCN(Cc3cccc(N)c3)CC2)cc1` [Q/73a, 1-(3-Amino-benzyl)-piperidin-4-yl 4-methyl-benzoate]: 19 nM. Consider `O=C(OC1CCN(Cc2ccc(F)cc2)CC1)c1ccccc1` [O/64b, 1-(4-Fluoro-benzyl)-piperidin-4-yl benzoate], for which the inhibition constant Ki under setting [1] is 18 nM. Same read-out and setting: the same measure for `O=C(OC1CCN(Cc2cccc([N+](=O)[O-])c2)CC1)c1ccccc1` [M/70b, 1-(3-Nitro-benzyl)-piperidin-4-yl benzoate]: 13 nM; for `COc1ccc(CN2CCC(OC(=O)c3ccccc3)CC2)cc1` [S/80c, 1-(4-Methoxy-benzyl)-piperidin-4-yl benzoate]: 15 nM.

Take `CNc1ccc(C(=O)OC2CCN(Cc3ccccc3)CC2)cc1` [G/32b, 1-Benzyl-piperidin-4-yl 4-methylamino-benzoate]: under setting [1], the inhibition constant (Ki) stood at 5 nM.

Source of the values: US5753679A, “Benzyl-piperidine derivatives” (priority 1995, dated 1998).
